Experimental data reported in ChEMBL document CHEMBL5512607, “Journey of Von Hippel-Lindau (VHL) E3 ligase in PROTACs design: From VHL ligands to VHL-based degraders” (Eur J Med Chem, 2024).
pEC50, pIC50, pKd: −log10 of the molar value.

Experiments:
[1] = biological target: T1, von Hippel-Lindau disease tumor suppressor (Homo sapiens, UniProt P40337); assay: Inhibition of VHL (unknown origin)
[2] = biological target: T2, von Hippel-Lindau disease tumor suppressor/Epidermal growth factor receptor (Homo sapiens, UniProt P00533+P40337); assay: PROTAC activity at VHL/wild type EGFR in human OVCAR-8 cells assessed as protein degradation incubated for 24 hrs by immunoblot analysis; format: cell-based
[3] = system: von Hippel-Lindau disease tumor suppressor/Epidermal growth factor receptor (Homo sapiens), P00533+P40337 [UNDEFINED MUTATION]; assay: PROTAC activity at VHL/EGFR Ex20ins mutant in human HeLa cells assessed as maximal degradation incubated for 24 hrs by immunoblot analysis relative to control; format: cell-based
[4] = biological target: T2, von Hippel-Lindau disease tumor suppressor/Epidermal growth factor receptor; assay: PROTAC activity at VHL/wild type EGFR in human OVCAR-8 cells assessed as maximal degradation incubated for 24 hrs by immunoblot analysis relative to control; format: cell-based
[5] = biological target: T2, von Hippel-Lindau disease tumor suppressor/Epidermal growth factor receptor; assay: PROTAC activity at VHL/EGFR Ex20ins mutant in human HeLa cells assessed as protein degradation incubated for 24 hrs by immunoblot analysis; format: cell-based
[6] = biological target: T3, Von Hippel-Lindau disease tumor suppressor/Elongin B/Elongin C (Homo sapiens, UniProt P40337); assay: Inhibition of VHL/Elongin B/Elogin C (unknown origin) using FAM-DEALA-Hyp-YIPD as substrate by fluorescence polarization assay; format: protein-complex assay
T3 sequence (P40337 whole entry, looked up): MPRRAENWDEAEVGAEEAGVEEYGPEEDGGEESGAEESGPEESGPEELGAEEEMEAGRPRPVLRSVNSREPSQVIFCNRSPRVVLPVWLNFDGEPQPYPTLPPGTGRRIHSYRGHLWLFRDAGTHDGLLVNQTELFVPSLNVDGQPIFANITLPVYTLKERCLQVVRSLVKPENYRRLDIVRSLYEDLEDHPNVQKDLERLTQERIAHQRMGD

[7] = biological target: T1, von Hippel-Lindau disease tumor suppressor; assay: Binding affinity to VHL (unknown origin) assessed as dissociation constant by fluorescence polarization assay
[8] = biological target: T3, Von Hippel-Lindau disease tumor suppressor/Elongin B/Elongin C; assay: Inhibition of VHL (unknown origin) (1 to 213 residues)/ElonginC/ElonginB expressed in Escherichia coli BL21 (DE3) using (FAM)-labeled HIF-1alpha peptide as substrate incubated for 2 hrs by fluorescence polarization assay
[9] = system: von Hippel-Lindau disease tumor suppressor/Epidermal growth factor receptor (Homo sapiens), P00533+P40337 [L858R,T790M]; assay: PROTAC activity at VHL/EGFR L858R/T790M double mutant in human NCI-H1975 cells assessed as maximal degradation of EGFR incubated for 24 hrs by immunoblotting analysis relative to control; format: cell-based
von Hippel-Lindau disease tumor suppressor/Epidermal growth factor receptor (Homo sapiens), P00533+P40337 [L858R,T790M], sequence (P00533 whole entry T790M/L858R): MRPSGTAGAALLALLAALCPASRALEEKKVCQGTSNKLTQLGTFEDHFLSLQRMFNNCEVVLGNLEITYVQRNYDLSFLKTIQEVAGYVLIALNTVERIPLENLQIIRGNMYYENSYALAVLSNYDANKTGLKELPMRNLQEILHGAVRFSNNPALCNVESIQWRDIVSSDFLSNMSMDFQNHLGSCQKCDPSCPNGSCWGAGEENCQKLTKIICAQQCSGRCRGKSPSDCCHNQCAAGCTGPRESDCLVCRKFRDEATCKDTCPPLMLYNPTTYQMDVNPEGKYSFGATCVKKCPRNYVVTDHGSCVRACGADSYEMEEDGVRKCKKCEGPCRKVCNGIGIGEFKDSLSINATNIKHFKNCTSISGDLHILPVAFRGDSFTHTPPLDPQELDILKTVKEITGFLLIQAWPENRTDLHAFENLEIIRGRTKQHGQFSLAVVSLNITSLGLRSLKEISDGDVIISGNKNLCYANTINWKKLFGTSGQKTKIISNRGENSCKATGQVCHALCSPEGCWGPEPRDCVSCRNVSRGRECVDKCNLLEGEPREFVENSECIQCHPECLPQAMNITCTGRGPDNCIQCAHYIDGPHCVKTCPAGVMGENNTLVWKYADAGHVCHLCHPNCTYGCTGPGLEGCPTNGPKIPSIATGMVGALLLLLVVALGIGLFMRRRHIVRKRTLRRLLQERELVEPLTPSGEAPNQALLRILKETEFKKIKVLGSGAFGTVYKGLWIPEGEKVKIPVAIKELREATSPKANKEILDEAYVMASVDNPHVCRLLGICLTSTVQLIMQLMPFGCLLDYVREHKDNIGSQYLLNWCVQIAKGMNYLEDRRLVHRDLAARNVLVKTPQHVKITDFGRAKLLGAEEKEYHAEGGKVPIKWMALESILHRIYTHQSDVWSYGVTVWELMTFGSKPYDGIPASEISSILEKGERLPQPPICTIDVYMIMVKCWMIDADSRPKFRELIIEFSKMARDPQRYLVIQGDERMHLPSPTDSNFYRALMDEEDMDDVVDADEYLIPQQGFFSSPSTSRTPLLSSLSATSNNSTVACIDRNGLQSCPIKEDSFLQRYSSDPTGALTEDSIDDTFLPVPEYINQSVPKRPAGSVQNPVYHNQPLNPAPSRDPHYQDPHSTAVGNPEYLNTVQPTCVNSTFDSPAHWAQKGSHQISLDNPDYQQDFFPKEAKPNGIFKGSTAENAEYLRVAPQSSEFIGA
von Hippel-Lindau disease tumor suppressor/Epidermal growth factor receptor (Homo sapiens), P00533+P40337 [L858R,T790M], sequence (P40337 whole entry partner): as the sequence (P40337 whole entry, looked up) above

[10] = biological target: von Hippel-Lindau disease tumor suppressor/Bromodomain-containing protein 4; assay: PROTAC activity at VHL/BRD4 in human 22Rv1 cells assessed as induction of BRD4 degradation by Immunoblot analysis
CWR22R = assay: Antiproliferative activity against human 22Rv1 cells assessed as reduction in cell viability incubated for 48 hrs by MTT assay; format: functional, cell-based; settings: 22Rv1, 48 h
[11] = biological target: von Hippel-Lindau disease tumor suppressor/Bromodomain-containing protein 2 (Homo sapiens, UniProt P25440+P40337); assay: PROTAC activity at VHL/BRD2 in human 22Rv1 cells assessed as induction of BRD2 degradation by Immunoblot analysis; format: cell-based
von Hippel-Lindau disease tumor suppressor/Bromodomain-containing protein 2, sequence (P25440 whole entry): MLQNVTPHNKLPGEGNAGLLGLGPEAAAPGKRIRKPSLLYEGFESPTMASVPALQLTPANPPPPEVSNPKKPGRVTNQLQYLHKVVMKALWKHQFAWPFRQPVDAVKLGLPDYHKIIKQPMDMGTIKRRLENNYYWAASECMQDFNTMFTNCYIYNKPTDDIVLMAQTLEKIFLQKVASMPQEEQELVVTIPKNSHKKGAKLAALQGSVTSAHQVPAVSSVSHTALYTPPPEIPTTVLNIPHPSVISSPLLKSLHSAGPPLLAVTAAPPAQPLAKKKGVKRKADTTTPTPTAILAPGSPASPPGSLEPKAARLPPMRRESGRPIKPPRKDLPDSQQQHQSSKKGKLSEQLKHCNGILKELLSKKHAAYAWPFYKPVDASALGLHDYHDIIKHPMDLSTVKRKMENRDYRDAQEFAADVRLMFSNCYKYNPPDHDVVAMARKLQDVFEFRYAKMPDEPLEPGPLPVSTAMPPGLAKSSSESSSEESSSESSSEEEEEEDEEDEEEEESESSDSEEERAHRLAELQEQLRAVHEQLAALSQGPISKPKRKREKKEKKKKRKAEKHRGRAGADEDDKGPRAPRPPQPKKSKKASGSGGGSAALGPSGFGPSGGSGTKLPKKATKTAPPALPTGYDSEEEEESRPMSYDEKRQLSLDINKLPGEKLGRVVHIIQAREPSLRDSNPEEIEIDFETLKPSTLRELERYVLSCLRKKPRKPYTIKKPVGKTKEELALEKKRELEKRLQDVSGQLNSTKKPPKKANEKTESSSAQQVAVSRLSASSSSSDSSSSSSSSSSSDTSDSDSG
von Hippel-Lindau disease tumor suppressor/Bromodomain-containing protein 2, sequence (P40337 whole entry): as the sequence (P40337 whole entry, looked up) above

[12] = system: von Hippel-Lindau disease tumor suppressor/Bromodomain-containing protein 4; assay: PROTAC activity at VHL/BRD4 in human VCaP cells assessed as maximum degradation of BRD4 by Western blot analysis relative to control
[13] = biological target: von Hippel-Lindau disease tumor suppressor/Bromodomain-containing protein 3 (Homo sapiens, UniProt Q15059+P40337); assay: PROTAC activity at VHL/BRD3 in human 22Rv1 cells assessed as induction of BRD3 degradation by Immunoblot analysis; format: cell-based
von Hippel-Lindau disease tumor suppressor/Bromodomain-containing protein 3, sequence (Q15059 whole entry, the tested form may be a part): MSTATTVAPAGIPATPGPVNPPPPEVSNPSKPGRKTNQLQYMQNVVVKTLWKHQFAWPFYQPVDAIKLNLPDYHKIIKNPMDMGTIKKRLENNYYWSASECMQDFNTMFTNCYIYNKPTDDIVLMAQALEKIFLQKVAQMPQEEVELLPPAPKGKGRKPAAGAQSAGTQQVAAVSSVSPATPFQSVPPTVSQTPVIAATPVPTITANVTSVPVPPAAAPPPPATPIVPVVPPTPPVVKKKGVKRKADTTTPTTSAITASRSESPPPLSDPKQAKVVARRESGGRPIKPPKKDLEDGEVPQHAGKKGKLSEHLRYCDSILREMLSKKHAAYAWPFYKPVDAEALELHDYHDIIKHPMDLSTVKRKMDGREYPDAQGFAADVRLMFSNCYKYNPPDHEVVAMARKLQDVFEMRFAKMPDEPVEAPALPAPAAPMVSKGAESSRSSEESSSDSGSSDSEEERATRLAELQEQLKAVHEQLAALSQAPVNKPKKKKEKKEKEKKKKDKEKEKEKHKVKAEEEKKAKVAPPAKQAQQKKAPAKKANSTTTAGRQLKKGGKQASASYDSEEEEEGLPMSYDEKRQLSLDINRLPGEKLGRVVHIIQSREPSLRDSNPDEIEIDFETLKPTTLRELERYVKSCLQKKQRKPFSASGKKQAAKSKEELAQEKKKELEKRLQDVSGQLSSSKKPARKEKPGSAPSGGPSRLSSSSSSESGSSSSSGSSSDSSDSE
von Hippel-Lindau disease tumor suppressor/Bromodomain-containing protein 3, sequence (P40337 whole entry, the tested form may be a part): as the sequence (P40337 whole entry, looked up) above

[14] = biological target: T1, von Hippel-Lindau disease tumor suppressor; assay: Inhibition of NanoLuc-fused VHL (unknown origin) transfected in live HEK293 cells using NanoGlo as substrate incubated for 1 hrs by tracer based NanoBRET assay; format: cell-based
[15] = biological target: von Hippel-Lindau disease tumor suppressor/Bromodomain-containing protein 4 (Homo sapiens, UniProt O60885+P40337); assay: PROTAC activity at human VHL/BRD4 in human HeLa cells assessed as degradation of BRD4 incubated for 24 hrs by Western blot analysis; format: cell-based
von Hippel-Lindau disease tumor suppressor/Bromodomain-containing protein 4 (Homo sapiens, UniProt O60885+P40337), sequence (P40337 whole entry, looked up, other chains not shown): as the sequence (P40337 whole entry, looked up) above

[16] = system: von Hippel-Lindau disease tumor suppressor/Mitogen-activated protein kinase 14; assay: PROTAC activity at VHL/N-terminal His-tagged human p38alpha expressed in […] assessed as maximal degradation relative to control
[17] = PROTAC activity at VHL/N-terminal His-tagged human p38alpha expressed in […] assessed as p38alpha degradation

T1 sequence (P40337 whole entry): as the sequence (P40337 whole entry, looked up) above

Cc1cc(CC(=O)N2C[C@H](O)C[C@H]2C(=O)NCc2cccc(Cl)c2)on1
pIC50 [1]: 6.93

Cc1ncsc1-c1ccc(CNC(=O)[C@@H]2C[C@@H](O)CN2C(=O)[C@H](NC(=O)COCCOCCOc2ccc(-c3ccc4ncnc(Nc5ccc(OCc6cccc(F)c6)c(Cl)c5)c4c3)cc2)C(C)(C)C)cc1
DC50 [2]: 39.2 nM
Emax [3]: 68.8%
Emax [4]: 97.6%
DC50 [5]: 736 nM

O=C(NCc1ccc(Cl)cc1)[C@@H]1C[C@@H](O)CN1C(=O)c1ccccc1Cl
pIC50 [6]: 4.28

Cc1cc(-c2scnc2C)ccc1[C@H](C)NC(=O)[C@@H]1C[C@@H](O)CN1C(=O)[C@H](NC(=O)C1(C#N)CC1)C(C)(C)C
pKd [7]: 7.07

Cc1ncsc1-c1ccc(CNC(=O)[C@@H]2C[C@@H](O)CN2C(=O)c2cccc(N)c2C)cc1
pIC50 [8]: 5.00

Cc1ncsc1-c1ccc(CNC(=O)[C@H]2C[C@H](O)CN2C(=O)[C@H](NC(=O)CCCCCOCCCCOCCCCOc2cc3ncnc(Nc4ccc(F)c(Cl)c4)c3cc2NC(=O)/C=C/CN(C)C)C(C)(C)C)cc1
Emax [9]: 79.1%

COc1cccc(/C=C2\Oc3cc(OCC(=O)N4CC(O)C[C@H]4C(=O)O)ccc3C2=O)c1 (stereo partly drawn)
pIC50 [8]: 5.64

Cc1ncsc1-c1ccc([C@H](C)NC(=O)[C@@H]2C[C@@H](O)CN2C(=O)[C@@H](NC(=O)COCCOCCOCCNC(=O)C[C@@H]2N=C(c3ccc(Cl)cc3)c3c(sc(C)c3C)-n3c(C)nnc32)C(C)(C)C)cc1
DC50 [10]: < 5 nM
pEC50 (CWR22R): 7.05
DC50 [11]: < 5 nM
Emax [12]: > 99%
DC50 [13]: < 5 nM

CC(=O)N[C@H](C(=O)N1C[C@H](O)C[C@H]1C(=O)N[C@H](C)c1ccc(-c2scnc2C)cc1)C(C)(C)C
pIC50 [14]: 4.59

CC(=O)N[C@H](C(=O)N1C[C@H](O)[C@@H](F)[C@H]1C(=O)Nc1ccc(-c2scnc2C)cc1)C(C)(C)C
DC50 [15]: 10 nM

Cc1ncsc1-c1ccc([C@H](C)NC(=O)[C@@H]2C[C@@H](O)CN2C(=O)[C@H](NC(=O)C2(F)CC2)C(C)(C)C)cc1F
pKd [7]: 7.14

Cc1ncsc1-c1ccc([C@H](C)NC(=O)[C@@H]2C[C@@H](O)CN2C(=O)[C@H](NC(=O)C2(C#N)CC2)C(C)(C)C)cc1F
pKd [7]: 6.73

Cc1ncsc1-c1cc2c(cc1F)[C@@H](NC(=O)[C@@H]1C[C@@H](O)CN1C(=O)[C@H](NC(=O)C1(F)CC1)C(C)(C)C)CCCC2
pKd [7]: 5.98

Cc1cc(-c2scnc2C)ccc1[C@H](C)NC(=O)[C@@H]1C[C@@H](O)CN1C(=O)[C@H](NC(=O)C1(F)CC1)C(C)(C)C
pKd [7]: 7.43

COc1cc2c(Oc3ccc(NC(=O)C4(C(=O)Nc5ccc(F)cc5)CC4)cc3F)ccnc2cc1OCCOCCOCCOc1cc(-c2scnc2C)ccc1CNC(=O)[C@@H]1C[C@@H](O)CC1C(=O)[C@H](C(C)C)C1Cc2ccccc2C1=O (stereo partly drawn)
Emax [16]: 99.4%
DC50 [17]: 66.2 nM
